Measurements taken from patent US6828317B2, “Antimicrobial thiadiazinone derivatives and their application for treatment of bacterial infections” (Pharmacia & Upjohn Company, priority 2002, dated 2004).
Values after ≈ are worked out from the molar mass of the structure shown.

Tests used:
S. aureus UC9213 = assay: MIC by agar dilution, S. aureus UC9213; type: cell-based; conditions: Staphylococcus aureus, Mueller Hinton agar, overnight at 35° C.
Source text: (§1) The in vitro activity of compounds of the subject invention may be assessed by standard testing procedures such as the determination of minimum inhibitory concentration (MIC) by agar dilution as described in “Approved Standard. Methods for Dilution Antimicrobial Susceptibility Tests for Bacteria that Grow Aerobically,” 3rd ed., published 1993 by the National Committee for Clinical Laboratory standards, Villanova, Pa., USA. The in vitro MICs of test compounds may be determined by a standard agar dilution method. A stock drug solution of each analog is prepared in a preferred solvent, usually DMSO:H2O (1:3). Serial 2-fold dilutions of each sample are made using 1.0 ml aliquots of sterile distilled water. To each 1.0 ml aliquot of drug is added 9 ml of molten Mueller Hinton agar medium. The drug-supplemented agar is mixed, poured into 15×100 mm petri dishes, and allowed to solidify and dry prior to inoculation. Vials of each of the test microorganisms are maintained frozen in the vapor phase of a liquid nitrogen freezer. Test cultures are grown overnight at 35° C. on the medium appropriate for the microorganism. Colonies are harvested with a sterile swab, and cell suspensions are prepared in Trypticase Soy broth (TSB) to equal the turbidity of a 0.5 McFarland standard. A 1:20 dilution of each suspension is made in TSB. The plates containing the drug supplemented agar are inoculated with a 0.001 ml drop of the cell suspension using a Steers replicator, yielding approximately 10^4 to 10^5 cells per spot. The plates are incubated overnight at 35° C. Following incubation the Minimum Inhibitory Concentration (MIC μg/ml), the lowest concentration of drug that inhibits visible growth of the microorganism, is read and recorded.

S. pneumoniae UC9912 = assay: MIC by agar dilution, S. pneumoniae UC9912; type: cell-based; conditions: Streptococcus pneumoniae, Mueller Hinton agar, overnight at 35° C.
Source text: as §1

H. influenzae 30063 = assay: MIC by agar dilution, H. influenzae 30063; type: cell-based; conditions: Haemophilus influenzae, Mueller Hinton agar, overnight at 35° C.
Source text: as §1

MIC (S. aureus UC9213)	melting point	MIC (S. pneumoniae UC9912)	MIC (H. influenzae 30063)	Structure (SMILES)
2 µg/mL (≈ 5.26 µM)	179 to 180 °C	0.5 µg/mL (≈ 1.31 µM)	16 µg/mL (≈ 42.1 µM)	CC(=O)NC[C@H]1CN(c2ccc(C3=NN(C)C(=O)CS3)c(F)c2)C(=O)O1 [Example 32, N-{3-[3-Fluoro-4-(4-methyl-5-oxo-5,6-dihydro-[1,3,4]thiadiazin-2-yl)-phenyl]-2-oxo-oxazolidin-5(S)-ylmethyl}-acetamide]
0.125 µg/mL (≈ 0.327 µM)	182 to 183 °C	< 0.06 µg/mL	0.5 µg/mL (≈ 1.31 µM)	CC(=S)NC[C@H]1CN(c2ccc(C3=NNC(=O)CS3)c(F)c2)C(=O)O1 [Example 25, N-{3-[3-Fluoro-4-(5-oxo-5,6-dihydro-4H-[1,3,4]thiadiazin-2-yl)-phenyl]-2-oxo-oxazolidin-5(S)-ylmethyl}-thioacetamide]

Further lines, the compound ahead of its results:

Structure (SMILES)	MIC (S. aureus UC9213)	melting point	MIC (S. pneumoniae UC9912)	MIC (H. influenzae 30063)
NC(=O)NC[C@H]1CN(c2ccc(C3=NNC(=O)CS3)c(F)c2)C(=O)O1 [Example 18, {3-[3-Fluoro-4-(5-oxo-5,6-dihydro-4H-[1,3,4]thiadiazin-2-yl)-phenyl]-2-oxo-oxazolidin-5(S)-ylmethyl}-urea]	2 µg/mL (≈ 5.44 µM)	235 to 236 °C	0.125 µg/mL (≈ 0.34 µM)	4 µg/mL (≈ 10.9 µM)
O=C(CC(=O)c1ccc(F)cc1)NC[C@H]1CN(c2ccc(C3=NNC(=O)CS3)c(F)c2)C(=O)O1 [Example 22, N-{3-[3-Fluoro-4-(5-oxo-5,6-dihydro-4H-[1,3,4]thiadiazin-2-yl)-phenyl]-2-oxo-oxazolidin-5(S)-ylmethyl}-3-(4-fluorophenyl)-3-oxo-propionamide]	4 µg/mL (≈ 8.19 µM)	184 to 187 °C	1 µg/mL (≈ 2.05 µM)	16 µg/mL (≈ 32.8 µM)
CCC1SC(c2ccc(N3C[C@H](CNC(C)=O)OC3=O)cc2F)=NNC1=O (stereo partly drawn) [Example 5, N-{3-[3-Fluoro-4-(6-ethyl-5-oxo-5,6-dihydro-4H-[1,3,4]thiadiazin-2-yl)-phenyl]-2-oxo-oxazolidin-5(S)-ylmethyl}-acetamide]	4 µg/mL (≈ 10.1 µM)	177 to 179 °C	2 µg/mL (≈ 5.07 µM)	32 µg/mL (≈ 81.1 µM)
CC(=O)CC(=O)NC[C@H]1CN(c2ccc(C3=NNC(=O)CS3)c(F)c2)C(=O)O1 [Example 21, N-{3-[3-Fluoro-4-(5-oxo-5,6-dihydro-4H-[1,3,4]thiadiazin-2-yl)-phenyl]-2-oxo-oxazolidin-5(S)-ylmethyl}-3-oxo-butyramide]	4 µg/mL (≈ 9.79 µM)	176 to 178 °C	0.5 µg/mL (≈ 1.22 µM)	8 µg/mL (≈ 19.6 µM)
